This passage reports IC50 results from US20160222021A1, “ARYL ETHER-BASE KINASE INHIBITORS” (BRISTOL-MYERS SQUIBB COMPANY, priority 2013, published 2016).

As usually defined, the IC50 is the point on the concentration scale where inhibition reaches its midpoint.

For one experiment, the target named is T1, GST-Xa-hAAK1 (Homo sapiens, UniProt Q2M2I8).
T1 construct: made in house
T1 sequence (Q2M2I8 whole entry): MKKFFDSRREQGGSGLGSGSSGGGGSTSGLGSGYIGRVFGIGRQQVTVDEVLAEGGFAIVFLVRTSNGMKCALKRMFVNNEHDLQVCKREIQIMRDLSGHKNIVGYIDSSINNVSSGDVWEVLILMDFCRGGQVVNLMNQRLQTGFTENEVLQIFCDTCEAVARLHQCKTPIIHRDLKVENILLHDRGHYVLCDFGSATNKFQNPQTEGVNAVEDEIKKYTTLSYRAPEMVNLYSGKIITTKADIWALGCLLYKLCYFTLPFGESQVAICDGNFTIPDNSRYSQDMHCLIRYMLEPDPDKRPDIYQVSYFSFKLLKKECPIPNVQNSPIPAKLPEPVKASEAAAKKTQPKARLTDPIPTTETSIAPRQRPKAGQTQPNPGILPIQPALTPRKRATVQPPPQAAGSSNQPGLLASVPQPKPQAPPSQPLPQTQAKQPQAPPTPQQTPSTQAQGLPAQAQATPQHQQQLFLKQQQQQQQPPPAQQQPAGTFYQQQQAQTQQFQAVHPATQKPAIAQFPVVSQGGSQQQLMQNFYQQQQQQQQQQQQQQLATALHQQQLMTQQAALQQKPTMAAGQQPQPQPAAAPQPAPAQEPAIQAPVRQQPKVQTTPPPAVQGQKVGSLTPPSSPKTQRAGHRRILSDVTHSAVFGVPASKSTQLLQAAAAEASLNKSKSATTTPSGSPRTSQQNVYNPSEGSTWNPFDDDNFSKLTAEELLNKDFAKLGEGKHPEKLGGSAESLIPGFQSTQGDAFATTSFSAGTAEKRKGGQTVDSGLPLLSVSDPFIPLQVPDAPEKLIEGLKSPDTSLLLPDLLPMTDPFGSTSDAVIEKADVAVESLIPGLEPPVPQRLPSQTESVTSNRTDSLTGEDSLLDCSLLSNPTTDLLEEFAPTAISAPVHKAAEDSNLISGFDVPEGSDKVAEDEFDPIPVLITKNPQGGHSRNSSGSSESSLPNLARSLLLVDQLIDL
In words: AAK1 Kinase Assay. It is filed as biochemical. The following applies: ATP 22 μM; IC50 ranges. As for the experimental part:
The assays were performed in U-bottom 384-well plates. The final assay volume was 30 μl prepared from 15 μl additions of enzyme and substrates (fluoresceinated peptide (5-FAM)-Aha-[…]-NH2 and ATP) and test compounds in assay buffer (10 mM Tris-HCL pH 7.4, 10 mM MgCl2, 0.01% Tween-20 and 1.0 mM DTT). The reactions were initiated by the combination of bacterially expressed, GST-Xa-hAAK1 with substrates and test compounds. The reactions were incubated at room temperature for 3 hours and terminated by adding 60 μl of 35 mM EDTA buffer to each sample. The reactions were analyzed on the Caliper LabChip 3000 (Caliper, Hopkinton, Mass.) by electrophoretic separation of the fluorescent substrate and phosphorylated product. […] The final concentration of reagents in the assays are ATP, 22 μM; (5-FAM)-Aha-[…]-NH2, 1.5 μM; GST-Xa-hAAK1, 3.5 nM; and DMSO, 1.6%. Dose response curves were generated to determine the concentration required inhibiting 50% of kinase activity (IC50). Compounds were dissolved at 10 mM in dimethylsulfoxide (DMSO) and evaluated at eleven concentrations. IC50 values were derived by non-linear regression analysis.
As for `CC(C)CC(C)(N)COc1ccc2c(c1)OCc1cnc(N)cc1-2` (racemic) [Example 68, 8-((2-amino-2,4-dimethylpentyl)oxy)-5H-chromeno[3,4-c]pyridin-2-amine], the half-inhibitory concentration (IC50) lay in the range of 1 to 10 nM. On the same count and under the same terms, to `COC(=O)Nc1cc2c(cn1)COc1c-2ccc(OCC(C)(N)CC(C)C)c1OC` (racemic) [Example 69, methyl (8-((2-amino-2,4-dimethylpentyl)oxy)-7-methoxy-5H-chromeno[3,4-c]pyridin-2-yl)carbamate] belongs less than 1 nM; to `[2H]C([2H])(Oc1ccc2c(c1)OCc1cnc(NC(C)=O)cc1-2)C(C)(N)CC(C)C` (racemic) [Example 78, N-(8-((2-amino-1,1-deutero-2,4-dimethylpentyl)oxy)-5H-chromeno[3,4-c]pyridin-2-yl)acetamide], 1 to 10 nM.

As to `COC(=O)Nc1cc2c(cn1)COc1c-2ccc(OCC(C)(N)CC(C)C)c1C#N` (racemic) [Example 79, methyl (8-((2-amino-2,4-dimethylpentyl)oxy)-7-cyano-5H-chromeno[3,4-c]pyridin-2-yl)carbamate], the IC50 was less than 1 nM. Same read-out and setting: to `[2H]C([2H])(Oc1ccc2c(c1C#N)OCc1cnc(NC(=O)OC)cc1-2)C(C)(N)CC(C)C` (racemic) [Example 94, methyl (8-((2-amino-1,1-deutero-2,4-dimethylpentyl)oxy)-7-cyano-5H-chromeno[3,4-c]pyridin-2-yl)carbamate] belongs less than 1 nM. Still for that read-out and setting: for `[2H]C([2H])(Oc1ccc2c(c1)OCc1cnc(NC(=O)OCC)cc1-2)C(C)(N)CC(C)C` (racemic) [Example 96, ethyl (8-((2-amino-1,1-deutero-2,4-dimethylpentyl)oxy)-5H-chromeno[3,4-c]pyridin-2-yl)carbamate] the value was 1 to 10 nM; for `CC(C)C[C@H](N)COc1ccc2c(c1)OC(C1CC1)c1cnccc1-2` (single isomer, unassigned) [Example 8a], 100 to 1200 nM. Still for that read-out and setting: to `CC(C)C[C@@H](N)COc1ccc2c(c1)OC(C1CC1)c1cnccc1-2` (single isomer, unassigned) [Example 9a] belongs 100 to 1200 nM; to `CC(C)C[C@@H](N)COc1ccc2c(c1)OC(C1CC1)c1cnccc1-2` (single isomer, unassigned) [Example 9b], 100 to 1200 nM; to `CC(C)C[C@H](N)COc1cc2c(cc1Cl)-c1ccncc1[C@H](C(F)(F)F)O2` (single isomer, unassigned) [Example 27a], 1 to 10 nM. Turning to `CC(C)C[C@H](N)COc1ccc2c(c1)OC(C(F)(F)F)c1cnccc1-2` (single isomer, unassigned; diastereomer 2) [Example 53], the IC50 was 10 to 100 nM. For the molecule `N[C@@H](COc1ccc2c(c1)OCc1cnccc1-2)Cc1ccccc1` [Example 2, (R)-1-(5H-chromeno[3,4-c]pyridin-8-yloxy)-3-phenylpropan-2-amine], the IC50 was 100 to 1200 nM.

`CC[C@@H](N)COc1ccc2c(c1)OCc1cnccc1-2` [Example 3, (R)-1-(5H-chromeno[3,4-c]pyridin-8-yloxy)butan-2-amine]: the IC50 lay within 100 to 1200 nM. Still for that read-out and setting: to `CC(C)C[C@@H](N)COc1ccc2c(c1)OC(C1CC1)c1cnccc1-2` (some centres unmarked) [Example 9] belongs 100 to 1200 nM. On the same count and under the same terms, to `CC(C)C[C@H](N)COc1ccc2c(c1)OC1(COC1)c1cnccc1-2` [Example 19, (S)-4-methyl-1-(spiro[chromeno[3,4-c]pyridine-5,3′-oxetan]-8-yloxy)pentan-2-amine] belongs 100 to 1200 nM. For the molecule `CC(C)C[C@H](N)COc1cc2oc(=O)c3cnccc3c2cc1Br` [Example 25, (S)-8-(2-amino-4-methylpentyloxy)-9-bromo-5H-chromeno[3,4-c]pyridin-5-one], the 50% inhibitory concentration (IC50) fell in the range of 1 to 10 nM.

The same experiment, now with this note: ATP 22 μM; numeric values.
As for `[2H]C([2H])(Oc1ccc2c(c1)OCc1cnc(NC(=O)OC)cc1-2)C(C)(N)CC(C)C` (racemic) [Example 75, methyl (8-((2-amino-1,1-deutero-2,4-dimethylpentyl)oxy)-5H-chromeno[3,4-c]pyridin-2-yl)carbamate], the IC50 was 2.3 nM.
